Laboratory results published in patent publication US8575158B2, “1-phenyl-substituted heterocyclyl derivatives and their use as prostaglandin D2 receptor modulators” (Actelion Pharmaceuticals Ltd., priority 2010, dated 2013).

Biological target: T1, hCRTH2 receptor (Homo sapiens, UniProt Q9Y5Y4)
T1 construct: expressed in transfected cells; host or cells: HEK293
T1 sequence (Q9Y5Y4 1-395): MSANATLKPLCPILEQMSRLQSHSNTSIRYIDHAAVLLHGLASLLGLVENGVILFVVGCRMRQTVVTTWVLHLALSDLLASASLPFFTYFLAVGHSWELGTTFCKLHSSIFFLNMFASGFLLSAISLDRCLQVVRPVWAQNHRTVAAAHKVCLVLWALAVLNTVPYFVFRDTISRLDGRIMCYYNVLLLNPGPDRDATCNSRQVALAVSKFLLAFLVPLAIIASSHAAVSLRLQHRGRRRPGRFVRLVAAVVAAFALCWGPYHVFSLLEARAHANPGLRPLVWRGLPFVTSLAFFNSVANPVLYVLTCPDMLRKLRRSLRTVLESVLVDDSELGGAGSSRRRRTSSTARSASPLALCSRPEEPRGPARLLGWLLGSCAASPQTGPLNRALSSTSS
Test: Radioligand displacement assay (3H-PGD2) on hCRTH2 receptor membranes
Type: binding
Conditions: antagonistic activity

[1] = 3H-PGD2 radioligand displacement, HEK293-hCRTH2 membranes
[2] = 3H-PGD2 displacement on HEK293-hCRTH2 membrane fragments
[3] = radioligand displacement (3H-PGD2), hCRTH2 receptor membranes

Row | SMILES | IC50 [1] [nM] | IC50 [2] [nM] | also measured
1 | COc1ccc2c(ccn2CC(=O)N2CCc3ccccc3C2c2cc(Cl)ccc2OCC(=O)O)c1 (racemic) [Example 489] | 319 |  | 
2 | O=C(O)COc1ccc(Cl)cc1[C@@H]1c2ccc(F)c(F)c2CCN1C(=O)OCc1ccccc1 [Example 229, (S)-1-(2-Carboxymethoxy-5-chloro-phenyl)-5,6-difluoro-3,4-dihydro-1H-isoquinoline-2-carboxylic acid benzyl ester] |  | 4.95 | 
3 | C[C@@H](Oc1ccc(F)cc1C1c2ccccc2CCN1C(=O)OCc1ccccc1)C(=O)O (stereo partly drawn) [Example 8, 1-[2-((R)-1-Carboxy-ethoxy)-5-fluoro-phenyl]-3,4-dihydro-1H-isoquinoline-2-carboxylic acid benzyl ester] |  | 39.5 | 
4 | O=C(O)COc1ccc(Cl)cc1C1c2ccccc2CCN1C(=O)CCN1C(=O)CSC1c1ccccc1 (centres unmarked) [Example 84, (4-Chloro-2-{2-[3-(4-oxo-2-phenyl-thiazolidin-3-yl)-propionyl]-1,2,3,4-tetrahydro-isoquinolin-1-yl}-phenoxy)-acetic acid] |  | 28.4 | 
5 | O=C(O)COc1ccc(Cl)cc1C1c2ccccc2CCN1C(=O)CCn1ccc2ccc(F)cc21 (racemic) [Example 388] | 25.7 |  | 
6 | O=C(O)COc1ccc(Cl)cc1C1c2ccccc2CCN1C(=O)OCc1cccc(F)c1F (racemic) [Example 249] |  | 3.86 | 
7 | O=C(O)COc1ccc(Cl)cc1C1c2ccccc2CN1C(=O)CCn1ncc2ccc(F)cc21 (single isomer, unassigned) [Example 534, (4-Chloro-2-{2-[3-(6-fluoro-indazol-1-yl)-propionyl]-2,3-dihydro-1H-isoindol-1-yl}-phenoxy)-acetic acid] | 12.9 |  | 
8 | O=C(O)COc1ccc(Cl)cc1C1c2ccccc2CCN1C(=O)COc1ccccc1F (racemic) [Example 410] | 70.7 |  | 
9 | O=C(O)COc1ccc(F)cc1C1c2ccccc2CCN1C(=O)CCc1ccc(Cl)cc1 (racemic) [Example 133, (±)-(2-{2-[3-(4-Chloro-phenyl)-propionyl]-1,2,3,4-tetrahydro-isoquinolin-1-yl}-4-fluoro-phenoxy)-acetic acid] |  | 126 | 
10 | Cc1noc(C)c1S(=O)(=O)NCC(=O)N1CCc2ccccc2C1c1cc(F)ccc1OCC(=O)O (racemic) [Example 206] |  | 819 | 
11 | Cc1ccccc1OCCC(=O)N1CCc2ccccc2C1c1cc(F)ccc1OCC(=O)O (racemic) [Example 147, (±)-{4-Fluoro-2-[2-(3-o-tolyloxy-propionyl)-1,2,3,4-tetrahydro-isoquinolin-1-yl]-phenoxy}-acetic acid] |  | 57.6 | 
12 | O=C(O)COc1ccc(Cl)cc1C1c2ccccc2CCN1C(=O)COc1cc(Cl)nc(Cl)c1 (racemic) [Example 473] | 650 |  | 
13 | O=C(O)COc1ccc(Cl)cc1C1c2ccccc2CCN1C(=O)NCc1ccc(F)cc1 (racemic) [Example 494] | 17 |  | 
14 | COc1ccc2[nH]cc(CCC(=O)N3Cc4ccccc4C3c3cc(Cl)ccc3OCC(=O)O)c2c1 (racemic) [Example 511] | 14.8 |  | 
15 | O=C(O)COc1ccc(Cl)cc1C1c2ccccc2CCN1C(=O)[C@@H]1C[C@H]1c1cccc(F)c1 (mixture of isomers) [Example 424] | 12 |  | 
16 | O=C(O)COc1ccc(Cl)cc1C1c2ccc(F)cc2CCN1C(=O)COCc1ccccc1Cl (racemic) [Example 437] | 5.23 |  | 
17 | O=C(O)COc1ccc(Cl)cc1C1c2ccccc2CCN1C(=O)[C@@H]1C[C@H]1c1ccccc1Cl (relative stereo) [Example 82, (4-Chloro-2-{2-[trans-2-(2-chloro-phenyl)-cyclopropanecarbonyl]-1,2,3,4-tetrahydro-isoquinolin-1-yl}-phenoxy)-acetic acid] |  | 4.8 | 
18 | O=C(O)COc1ccc(Cl)cc1[C@@H]1c2cccc(F)c2CCN1C(=O)OCc1ccccc1 [Example 31, (S)-1-(2-Carboxymethoxy-5-chloro-phenyl)-5-fluoro-3,4-dihydro-1H-isoquinoline-2-carboxylic acid benzyl ester] |  | 1.41 | 
19 | O=C(O)COc1ccc(S(=O)(=O)c2ccccc2)cc1C1c2ccccc2CCN1C(=O)OCc1ccccc1 (racemic) [Example 183] |  | 64 | 
20 | Cc1ccccc1[C@H]1C[C@@H]1C(=O)N1CCc2ccccc2[C@H]1c1cc(Cl)ccc1OCC(=O)O [Example 561, {4-Chloro-2-[(S)-2-((1S,2S)-2-o-tolyl-cyclopropanecarbonyl)-1,2,3,4-tetrahydro-isoquinolin-1-yl]-phenoxy}-acetic acid] |  |  | IC50 [3]: 274 nM
21 | O=C(O)COc1ccc(Cl)cc1C1c2ccccc2CCN1C(=O)[C@@H]1C[C@H]1c1ccccc1 (mixture of isomers) [Example 116, (±)-{4-Chloro-2-[2-(trans-2-phenyl-cyclopropanecarbonyl)-1,2,3,4-tetrahydro-isoquinolin-1-yl]-phenoxy}-acetic acid] |  | 5.42 | 

Row | SMILES | IC50 [1] [nM] | IC50 [2] [nM] | also measured
22 | Cc1csc(COC(=O)N2CCc3c(ccc(F)c3F)[C@H]2c2cc(Cl)ccc2OCC(=O)O)n1 [Example 302, (S)-1-(2-Carboxymethoxy-5-chloro-phenyl)-5,6-difluoro-3,4-dihydro-1H-isoquinoline-2-carboxylic acid 4-methyl-thiazol-2-ylmethyl ester] | 5.7 |  | 
23 | O=C(O)COc1ccc(Cl)cc1[C@@H]1c2ccccc2CCN1C(=O)[C@@H]1C[C@H]1c1ccc(F)cc1 [Example 566, (4-Chloro-2-{(S)-2-[(1R,2R)-2-(4-fluoro-phenyl)-cyclopropanecarbonyl]-1,2,3,4-tetrahydro-isoquinolin-1-yl}-phenoxy)-acetic acid] |  |  | IC50 [3]: 2.17 nM
24 | Cc1nn(CCC(=O)N2Cc3ccccc3C2c2cc(Cl)ccc2OCC(=O)O)c2c(F)cccc12 (single isomer, unassigned) [Example 540] | 633 |  | 
25 | COc1ccccc1COC(=O)N1CCc2ccccc2C1c1cc(Cl)ccc1OCC(=O)O (racemic) [Example 233] |  | 4.55 | 
26 | Cc1nc(COC(=O)N2CCc3c(ccc(F)c3F)[C@H]2c2cc(Cl)ccc2OCC(=O)O)cs1 [Example 304, (S)-1-(2-Carboxymethoxy-5-chloro-phenyl)-5,6-difluoro-3,4-dihydro-1H-isoquinoline-2-carboxylic acid 2-methyl-thiazol-4-ylmethyl ester] | 5.39 |  | 
27 | O=C(O)COc1ccc(F)cc1C1c2cccc(Cl)c2CCN1C(=O)OCc1ccccc1 (racemic) [Example 38, (±)-1-(2-Carboxymethoxy-5-fluoro-phenyl)-5-chloro-3,4-dihydro-1H-isoquinoline-2-carboxylic acid benzyl ester] |  | 20.8 | 
28 | Cc1ncsc1CCOC(=O)N1CCc2cc(F)ccc2[C@H]1c1cc(Cl)ccc1OCC(=O)O [Example 325, (S)-1-(2-Carboxymethoxy-5-chloro-phenyl)-6-fluoro-3,4-dihydro-1H-isoquinoline-2-carboxylic acid 2-(4-methyl-thiazol-5-yl)-ethyl ester] | 21.3 |  | 
29 | O=C(O)COc1ccc(Cl)cc1[C@@H]1c2ccccc2CCN1C(=O)OCc1nc2ccccc2o1 [Example 295, (S)-1-(2-Carboxymethoxy-5-chloro-phenyl)-3,4-dihydro-1H-isoquinoline-2-carboxylic acid benzooxazol-2-ylmethyl ester] | 7.41 |  | 
30 | O=C(O)COc1ccc(F)cc1C1c2ccccc2CCN1C(=O)CCOc1ccccc1F (racemic) [Example 54] |  | 32.2 | 
31 | Cc1nn(CCC(=O)N2CCc3cc(F)ccc3[C@H]2c2cc(Cl)ccc2OCC(=O)O)c2cccc(F)c12 [Example 391] | 158 |  | 
32 | O=C(O)COc1ccc(Cl)cc1C1c2ccccc2CN1C(=O)COc1cccc2cccnc12 (racemic) [Example 509] | 37.8 |  | 
33 | O=C(O)COc1ccc(F)cc1C1c2ccccc2CCN1C(=O)Cc1noc2ccccc12 (racemic) [Example 45, (±)-{2-[2-(2-Benzo[d]isoxazol-3-yl-acetyl)-1,2,3,4-tetrahydro-isoquinolin-1-yl]-4-fluoro-phenoxy}-acetic acid] |  | 369 | 
34 | CC(C)COC(=O)N1CCc2ccccc2C1c1cc(F)ccc1OCC(=O)O (racemic) [Example 171] |  | 47.7 | 
35 | O=C(O)COc1ccc(Cl)cc1C1c2ccccc2CCN1C(=O)OCc1cc(Cl)ccc1F (racemic) [Example 259] |  | 5.29 | 
36 | COc1ccccc1CCCC(=O)N1CCc2ccccc2C1c1cc(F)ccc1OCC(=O)O (racemic) [Example 149, (±)-(4-Fluoro-2-{2-[4-(2-methoxy-phenyl)-butyryl]-1,2,3,4-tetrahydro-isoquinolin-1-yl}-phenoxy)-acetic acid] |  | 42.7 | 
37 | O=C(O)COc1ccc(Cl)cc1[C@@H]1c2ccc(F)c(F)c2CCN1C(=O)OCc1ccccc1F [Example 349, (S)-1-(2-Carboxymethoxy-5-chloro-phenyl)-5,6-difluoro-3,4-dihydro-1H-isoquinoline-2-carboxylic acid 2-fluoro-benzyl ester] | 8.99 |  | 
38 | O=C(O)COc1ccc(Cl)cc1C1c2ccc(F)cc2CCN1C(=O)CCOc1ccc(F)cc1 (racemic) [Example 438] | 91.1 |  | 
39 | Cc1cnn(COC(=O)N2CCc3cc(F)ccc3[C@H]2c2cc(Cl)ccc2OCC(=O)O)c1 [Example 342, (S)-1-(2-Carboxymethoxy-5-chloro-phenyl)-6-fluoro-3,4-dihydro-1H-isoquinoline-2-carboxylic acid 4-methyl-pyrazol-1-ylmethyl ester] | 17.9 |  | 
40 | COc1ccc2c(c1)c(CCC(=O)N1CCc3ccccc3C1c1cc(Cl)ccc1OCC(=O)O)cn2C (racemic) [Example 458] | 47.5 |  | 
41 | O=C(O)COc1ccc(Cl)cc1C1c2ccc(Cl)c(Cl)c2CN1C(=O)OCc1ccccc1 (racemic) [Example 558] | 16.9 |  | 
